Source: ChEMBL document CHEMBL1132265, “Synthesis and evaluation of glucocerebrosidase inhibitory activity of anhydro deoxyinositols from (+)-epi- and (-)-vibo-quercitols” (Bioorg Med Chem Lett, 1999)
pIC50: −log10 of the molar value.

Legend:
[1] = target: T1, Lysosomal acid glucosylceramidase (Mus musculus, UniProt P17439); assay: Inhibitory activity against Glucosylceramidase in mouse liver at a concentration of 10e-4 M; NA is inactive; assay type: tissue-based
T1 sequence (P17439 whole entry): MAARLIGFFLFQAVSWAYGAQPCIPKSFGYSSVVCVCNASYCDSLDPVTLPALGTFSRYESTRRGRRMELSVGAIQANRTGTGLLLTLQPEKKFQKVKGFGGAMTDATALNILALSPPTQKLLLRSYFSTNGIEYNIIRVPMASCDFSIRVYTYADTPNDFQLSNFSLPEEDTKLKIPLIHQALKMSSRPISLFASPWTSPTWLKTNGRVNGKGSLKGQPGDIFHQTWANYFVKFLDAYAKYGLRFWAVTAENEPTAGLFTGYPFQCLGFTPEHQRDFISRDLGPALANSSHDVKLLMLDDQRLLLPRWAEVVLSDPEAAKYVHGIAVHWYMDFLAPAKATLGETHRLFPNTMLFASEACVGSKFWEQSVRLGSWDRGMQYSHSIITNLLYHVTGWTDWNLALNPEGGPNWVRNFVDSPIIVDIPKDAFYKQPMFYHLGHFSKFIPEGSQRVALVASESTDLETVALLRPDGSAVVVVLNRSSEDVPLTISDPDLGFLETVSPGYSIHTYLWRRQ

[2] = target: T1, Lysosomal acid glucosylceramidase; assay: Inhibitory activity against Glucosylceramidase in mouse liver; assay type: tissue-based
[3] = target: T1, Lysosomal acid glucosylceramidase; assay: Specific inhibitory activity against Glucosylceramidase in mouse liver; Significant activity
Galactocerebrosidase = target: T2, Galactocerebrosidase (Mus musculus, UniProt P54818); assay: Inhibitory activity against Galactocerebrosidase; NA is not active
T2 sequence (P54818 whole entry): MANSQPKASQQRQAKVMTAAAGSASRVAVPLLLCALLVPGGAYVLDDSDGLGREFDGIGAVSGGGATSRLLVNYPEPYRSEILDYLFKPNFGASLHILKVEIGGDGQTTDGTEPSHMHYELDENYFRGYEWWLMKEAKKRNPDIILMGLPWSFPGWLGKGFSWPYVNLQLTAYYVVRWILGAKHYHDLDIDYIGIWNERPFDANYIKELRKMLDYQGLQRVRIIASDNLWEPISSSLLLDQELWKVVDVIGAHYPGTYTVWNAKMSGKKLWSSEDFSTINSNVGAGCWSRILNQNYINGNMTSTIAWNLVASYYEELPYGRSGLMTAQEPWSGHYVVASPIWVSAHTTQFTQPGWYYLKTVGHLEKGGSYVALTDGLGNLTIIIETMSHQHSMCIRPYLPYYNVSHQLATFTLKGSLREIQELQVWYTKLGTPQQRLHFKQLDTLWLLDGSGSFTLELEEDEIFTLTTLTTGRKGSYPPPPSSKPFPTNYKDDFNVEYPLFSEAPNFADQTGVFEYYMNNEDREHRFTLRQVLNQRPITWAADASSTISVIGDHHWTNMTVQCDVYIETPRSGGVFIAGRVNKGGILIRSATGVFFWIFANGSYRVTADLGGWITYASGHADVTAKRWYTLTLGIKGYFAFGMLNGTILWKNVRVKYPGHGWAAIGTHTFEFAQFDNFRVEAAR

[4] = target: T1, Lysosomal acid glucosylceramidase; assay: Inhibitory activity against Glucosylceramidase in mouse liver; Significant activity
[5] = target: T1, Lysosomal acid glucosylceramidase; assay: Inhibitory activity against Glucosylceramidase in mouse liver relative to compound 5; Active; assay type: tissue-based
[6] = target: T1, Lysosomal acid glucosylceramidase; assay: Specific inhibitory activity against Glucosylceramidase in mouse liver; assay type: tissue-based

## O[C@@H]1[C@H](O)[C@H]2O[C@H]2C[C@@H]1O
[1]
  IC50: Not Active

## O[C@@H]1[C@H]2O[C@H]2[C@H](O)C[C@H]1O
[2]
  pIC50: 4.01

## OC[C@@H]1[C@@H](O)[C@H](O)[C@@H](O)[C@@H]2O[C@H]12 [CYCLOPHELLITOL]
[3]
  IC50: Significant activity

## O[C@@H]1[C@@H](O)[C@H](O)C[C@H]2O[C@@H]12
[2]
  pIC50: 6.02
Galactocerebrosidase
  IC50: Not Active

## O[C@@H]1[C@H](O)[C@H]2O[C@H]2C[C@H]1O
[1]
  IC50: Not Active

## O[C@@H]1[C@@H](O)[C@H](O)C[C@@H](O)[C@H]1O
[4]
  IC50: Significant activity

## O[C@@H]1[C@H]2O[C@H]2[C@@H](O)C[C@H]1O
[1]
  IC50: Not Active

## O[C@@H]1[C@@H](O)[C@H](O)C[C@@H]2O[C@H]12
[5]
  IC50: Active

## O[C@H]1[C@@H]2O[C@@H]2[C@H](O)C[C@@H]1O
[5]
  IC50: Active

## O[C@H]1[C@H]2O[C@H]2[C@H](O)C[C@H]1O
[1]
  IC50: Not Active

## O[C@H]1[C@H](O)[C@H](O)C[C@@H]2O[C@H]12
[1]
  IC50: Not Active

## O[C@@H]1[C@H]2O[C@H]2[C@H](O)C[C@@H]1O
[1]
  IC50: Not Active

## O[C@@H]1[C@H](O)[C@H](O)C[C@H]2O[C@@H]12
[1]
  IC50: Not Active

## O[C@H]1[C@H](O)[C@@H](O)[C@@H]2O[C@@H]2[C@@H]1O [CONDURITOL B EPOXIDE]
[6]
  pIC50: 5.05

## O[C@H]1[C@@H]2O[C@@H]2[C@@H](O)C[C@H]1O
[1]
  IC50: Not Active

## O[C@@H]1[C@@H](O)[C@H](O)C[C@H](O)[C@@H]1O
[4]
  IC50: Significant activity
